Counter-ions that a name gives are not always drawn. Like-named read-outs stand apart in the source and are kept apart here.
How the values were obtained:
[1] = test system: coronary vasospasm model (lysine-vasopressin); test: Effects on coronary vasospasm model (lysine-vasopressin test), inhibition of ST-segment elevation; type: in vivo, male Wistar rats; conditions: Rattus norvegicus, lysine-vasopressin 0.3 I.U./kg iv, MED = minimum dose with depression rate of 20% or higher
male dd-mice = test: Acute toxicity; conditions: mouse, in vivo, 10080 min; for MLD i.p.: ip; for MLD p.o.: po
Experimental: The compounds were orally administered and intraperitoneally administered to male dd-mice weighing 20 to 25 g. […] was determined by observing the mortality for seven days after the administration.

Row | SMILES | minimal effective dose ([1]; ip, 20 min before anesthetization, read-out: Coronary vasoconstriction model MED i.p.) | MLD i.p. (male dd-mice) | MLD p.o. (male dd-mice) | minimal effective dose ([1]; po, 30 min before anesthetization, read-out: Coronary vasoconstriction model MED p.o.)
1 | O=C(c1cccnc1)N1CC[N+]([O-])([C@H]2CO[C@H]3[C@@H]2OC[C@@H]3O[N+](=O)[O-])CC1 [Compound 113, 5-Deoxy-5-[4-(pyridin-3-yl)carbonylpiperazin N^1-oxid-1-yl]-1.4;3.6-dianhydro-L-iditol 2-nitrate hydrochloride] | < 25 mg/kg | > 100 mg/kg | > 300 mg/kg | –
2 | O=C(c1ccc(O)nc1)N1CCN([C@H]2CO[C@H]3[C@@H]2OC[C@@H]3O[N+](=O)[O-])CC1 [Compound 114, 5-Deoxy-5-[4-(6-hydroxypyridin-3-yl)carbonylpiperazin-1-yl]-1.4;3.6-dianhydro-L-iditol 2-nitrate hydrochloride] | – | > 100 mg/kg | > 300 mg/kg | < 30 mg/kg
